From PMC8058163 (Clinical pharmacology and therapeutics, 2020)
pIC50: −log10 of the molar value. Read-outs that look alike come from different tables or passages of the source.

Legend:
[1] = biological target: T1, OCT1 (Homo sapiens, UniProt O15245); experiment: Transporter inhibition assay, OCT1
T1 sequence (O15245 1-554): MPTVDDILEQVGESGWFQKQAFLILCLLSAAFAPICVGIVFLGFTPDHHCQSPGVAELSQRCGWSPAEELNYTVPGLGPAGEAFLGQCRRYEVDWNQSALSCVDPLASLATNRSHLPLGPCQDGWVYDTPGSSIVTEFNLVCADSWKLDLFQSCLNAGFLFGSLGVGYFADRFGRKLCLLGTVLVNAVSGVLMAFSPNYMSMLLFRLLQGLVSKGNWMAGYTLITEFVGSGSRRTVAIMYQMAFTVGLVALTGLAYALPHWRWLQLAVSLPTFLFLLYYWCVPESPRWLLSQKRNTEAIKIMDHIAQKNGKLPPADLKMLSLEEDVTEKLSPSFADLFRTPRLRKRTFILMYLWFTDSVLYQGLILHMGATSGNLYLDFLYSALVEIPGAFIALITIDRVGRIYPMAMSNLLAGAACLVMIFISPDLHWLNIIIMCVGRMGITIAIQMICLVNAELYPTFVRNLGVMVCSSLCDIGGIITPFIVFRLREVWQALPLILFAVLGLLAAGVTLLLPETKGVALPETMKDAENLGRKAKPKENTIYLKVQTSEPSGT

[2] = biological target: T2, OCT2 (Homo sapiens, UniProt O15244); experiment: Transporter inhibition assay, OCT2
T2 sequence (O15244 1-555): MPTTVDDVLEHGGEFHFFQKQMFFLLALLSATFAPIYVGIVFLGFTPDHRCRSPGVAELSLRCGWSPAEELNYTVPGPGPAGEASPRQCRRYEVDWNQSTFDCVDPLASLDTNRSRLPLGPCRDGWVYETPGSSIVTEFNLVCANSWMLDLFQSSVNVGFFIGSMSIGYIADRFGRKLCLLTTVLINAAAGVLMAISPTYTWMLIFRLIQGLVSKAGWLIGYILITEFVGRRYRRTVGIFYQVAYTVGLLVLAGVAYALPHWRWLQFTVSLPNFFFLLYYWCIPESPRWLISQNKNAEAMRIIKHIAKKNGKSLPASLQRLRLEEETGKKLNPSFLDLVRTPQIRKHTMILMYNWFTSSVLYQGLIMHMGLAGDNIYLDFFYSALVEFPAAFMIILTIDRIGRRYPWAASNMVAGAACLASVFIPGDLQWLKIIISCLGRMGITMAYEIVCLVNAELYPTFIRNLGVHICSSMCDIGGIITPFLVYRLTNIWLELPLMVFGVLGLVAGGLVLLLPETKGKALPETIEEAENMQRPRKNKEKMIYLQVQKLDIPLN

[3] = biological target: T3, OATP1B1 (Homo sapiens, UniProt Q9Y6L6); experiment: Transporter inhibition assay, OATP1B1; details: for inhibition at 100 μM: cell line (HEK293 or MDCKII) stably expressing OATP1B1
T3 sequence (Q9Y6L6 1-691): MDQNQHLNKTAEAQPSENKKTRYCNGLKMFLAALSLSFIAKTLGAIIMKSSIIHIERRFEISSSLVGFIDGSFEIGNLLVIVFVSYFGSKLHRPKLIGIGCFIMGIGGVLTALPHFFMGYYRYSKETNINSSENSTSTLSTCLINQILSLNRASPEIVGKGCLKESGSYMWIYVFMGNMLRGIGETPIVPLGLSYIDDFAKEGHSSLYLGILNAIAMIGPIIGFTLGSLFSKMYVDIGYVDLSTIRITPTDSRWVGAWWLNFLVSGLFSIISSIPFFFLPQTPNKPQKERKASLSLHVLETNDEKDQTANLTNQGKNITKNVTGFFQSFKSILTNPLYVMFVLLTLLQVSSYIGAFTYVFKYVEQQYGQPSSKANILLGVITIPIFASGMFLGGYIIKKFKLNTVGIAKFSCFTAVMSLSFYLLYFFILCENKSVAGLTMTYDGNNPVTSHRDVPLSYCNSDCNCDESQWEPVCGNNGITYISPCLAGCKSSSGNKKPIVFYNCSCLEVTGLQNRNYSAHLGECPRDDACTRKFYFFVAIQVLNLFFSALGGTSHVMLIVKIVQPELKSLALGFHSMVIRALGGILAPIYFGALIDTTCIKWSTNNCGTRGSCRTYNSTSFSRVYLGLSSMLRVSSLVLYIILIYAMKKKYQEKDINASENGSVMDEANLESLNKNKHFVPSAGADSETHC

[4] = biological target: T4, OATP2B1 (Homo sapiens, UniProt O94956); experiment: Transporter inhibition assay, OATP2B1; details: for inhibition at 100 μM: cell line (HEK293 or MDCKII) stably expressing OATP2B1
T4 sequence (O94956 1-709): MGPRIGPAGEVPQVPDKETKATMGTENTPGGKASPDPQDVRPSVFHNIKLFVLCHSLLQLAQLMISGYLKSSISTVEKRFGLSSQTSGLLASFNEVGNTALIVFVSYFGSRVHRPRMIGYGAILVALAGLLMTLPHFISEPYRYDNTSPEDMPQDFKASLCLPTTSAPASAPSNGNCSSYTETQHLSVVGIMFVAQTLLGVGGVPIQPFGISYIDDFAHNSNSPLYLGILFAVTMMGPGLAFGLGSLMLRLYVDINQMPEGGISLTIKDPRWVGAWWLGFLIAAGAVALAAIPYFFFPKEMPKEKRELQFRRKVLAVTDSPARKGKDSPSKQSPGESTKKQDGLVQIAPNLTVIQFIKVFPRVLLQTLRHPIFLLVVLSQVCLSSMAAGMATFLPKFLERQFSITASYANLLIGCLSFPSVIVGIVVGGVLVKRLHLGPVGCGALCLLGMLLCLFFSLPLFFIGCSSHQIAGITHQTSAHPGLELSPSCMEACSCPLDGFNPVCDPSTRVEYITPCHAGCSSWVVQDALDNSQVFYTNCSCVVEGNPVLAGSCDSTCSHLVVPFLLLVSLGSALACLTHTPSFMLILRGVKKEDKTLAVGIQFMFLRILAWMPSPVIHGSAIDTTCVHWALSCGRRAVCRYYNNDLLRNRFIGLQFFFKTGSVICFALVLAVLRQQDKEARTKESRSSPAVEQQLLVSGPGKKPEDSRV

[5] = biological target: P-gp (Homo sapiens, UniProt P08183); experiment: Transporter inhibition assay, P-gp; type: biochemical
Sequence of P-gp (P08183 whole entry): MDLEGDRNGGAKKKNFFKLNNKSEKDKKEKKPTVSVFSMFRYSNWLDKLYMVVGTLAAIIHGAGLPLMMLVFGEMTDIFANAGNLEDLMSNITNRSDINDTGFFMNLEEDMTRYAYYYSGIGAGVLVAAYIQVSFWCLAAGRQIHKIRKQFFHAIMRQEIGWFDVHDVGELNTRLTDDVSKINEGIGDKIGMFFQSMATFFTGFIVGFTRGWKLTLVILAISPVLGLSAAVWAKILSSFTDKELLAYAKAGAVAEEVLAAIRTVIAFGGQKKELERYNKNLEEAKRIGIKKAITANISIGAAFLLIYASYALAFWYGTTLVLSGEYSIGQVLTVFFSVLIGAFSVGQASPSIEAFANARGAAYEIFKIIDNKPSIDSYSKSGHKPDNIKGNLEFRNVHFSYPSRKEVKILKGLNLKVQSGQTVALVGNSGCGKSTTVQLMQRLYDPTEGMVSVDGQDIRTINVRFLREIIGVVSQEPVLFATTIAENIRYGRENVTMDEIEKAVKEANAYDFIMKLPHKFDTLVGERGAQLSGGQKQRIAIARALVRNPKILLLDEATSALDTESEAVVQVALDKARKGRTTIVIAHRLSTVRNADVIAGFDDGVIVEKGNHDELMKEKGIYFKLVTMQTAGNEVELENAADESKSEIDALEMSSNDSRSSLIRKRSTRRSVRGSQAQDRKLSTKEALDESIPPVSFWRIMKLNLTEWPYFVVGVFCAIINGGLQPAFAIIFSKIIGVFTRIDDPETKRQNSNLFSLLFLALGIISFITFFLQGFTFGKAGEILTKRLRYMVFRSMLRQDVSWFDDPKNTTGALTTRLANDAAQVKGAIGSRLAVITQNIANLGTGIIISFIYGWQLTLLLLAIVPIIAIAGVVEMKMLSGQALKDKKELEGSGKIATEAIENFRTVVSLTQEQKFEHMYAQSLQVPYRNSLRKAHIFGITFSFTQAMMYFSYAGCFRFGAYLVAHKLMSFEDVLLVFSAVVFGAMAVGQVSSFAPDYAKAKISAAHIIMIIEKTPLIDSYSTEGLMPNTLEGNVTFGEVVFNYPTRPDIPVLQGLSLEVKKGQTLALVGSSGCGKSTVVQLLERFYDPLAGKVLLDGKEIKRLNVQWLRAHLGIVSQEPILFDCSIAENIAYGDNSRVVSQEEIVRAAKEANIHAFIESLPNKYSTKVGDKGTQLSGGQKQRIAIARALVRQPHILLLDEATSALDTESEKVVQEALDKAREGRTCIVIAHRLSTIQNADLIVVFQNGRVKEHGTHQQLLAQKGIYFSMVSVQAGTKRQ

SMILES | pIC50 ([1]; OCT1, isolated alkaloids, mean [95% CI], three technical replicates) | pIC50 ([2]; OCT2, isolated alkaloids, mean [95% CI], three technical replicates) | pIC50 ([3]; OATP1B1, isolated alkaloids, mean [95% CI], three technical replicates) | inhibition at the highest concentration tested ([4]; OATP2B1, alkaloids screened at 10 and 100 μM) | inhibition at 100 μM [5] [%] | pIC50 [1] | pIC50 [2] | inhibition at 100 μM [3] [%] | inhibition at 100 μM [4] [%]
COc1ccc2c(c1OC)C(=O)O[C@@H]2[C@H]1c2cc3c(cc2CCN1C)OCO3 [(−)-β-Hydrastine, (1R,9S)-(−)-β-Hydrastine] | 5.18 | 4.05 | 3.92 | -- (inhibition not observed) |  |  |  |  | 
COc1ccc2cc3[n+](cc2c1OC)CCc1cc2c(cc1-3)OCO2 [Berberine, berberine chloride] |  |  |  |  | < 20 | 4.72 | 4.35 | < 20 | < 20
CN1CCc2cc3c(cc2C1O)OCO3 (stereo not shown) [Hydrastinine, hydrastinine chloride monohydrate] |  |  |  |  | < 20 |  | 4.02 | < 20 | < 20
